# Counter-ions that a name gives are not always drawn.
# Target: Rho-associated protein kinase 2 (Homo sapiens, UniProt O75116)
# Test: ROCK2 kinase inhibitor potency, dose response, biochemical, Kinase-Glo luminescence, S6 peptide, 1536-well (AID 644)
# Conditions: not given
# Rho-associated protein kinase 2, sequence (O75116 whole entry): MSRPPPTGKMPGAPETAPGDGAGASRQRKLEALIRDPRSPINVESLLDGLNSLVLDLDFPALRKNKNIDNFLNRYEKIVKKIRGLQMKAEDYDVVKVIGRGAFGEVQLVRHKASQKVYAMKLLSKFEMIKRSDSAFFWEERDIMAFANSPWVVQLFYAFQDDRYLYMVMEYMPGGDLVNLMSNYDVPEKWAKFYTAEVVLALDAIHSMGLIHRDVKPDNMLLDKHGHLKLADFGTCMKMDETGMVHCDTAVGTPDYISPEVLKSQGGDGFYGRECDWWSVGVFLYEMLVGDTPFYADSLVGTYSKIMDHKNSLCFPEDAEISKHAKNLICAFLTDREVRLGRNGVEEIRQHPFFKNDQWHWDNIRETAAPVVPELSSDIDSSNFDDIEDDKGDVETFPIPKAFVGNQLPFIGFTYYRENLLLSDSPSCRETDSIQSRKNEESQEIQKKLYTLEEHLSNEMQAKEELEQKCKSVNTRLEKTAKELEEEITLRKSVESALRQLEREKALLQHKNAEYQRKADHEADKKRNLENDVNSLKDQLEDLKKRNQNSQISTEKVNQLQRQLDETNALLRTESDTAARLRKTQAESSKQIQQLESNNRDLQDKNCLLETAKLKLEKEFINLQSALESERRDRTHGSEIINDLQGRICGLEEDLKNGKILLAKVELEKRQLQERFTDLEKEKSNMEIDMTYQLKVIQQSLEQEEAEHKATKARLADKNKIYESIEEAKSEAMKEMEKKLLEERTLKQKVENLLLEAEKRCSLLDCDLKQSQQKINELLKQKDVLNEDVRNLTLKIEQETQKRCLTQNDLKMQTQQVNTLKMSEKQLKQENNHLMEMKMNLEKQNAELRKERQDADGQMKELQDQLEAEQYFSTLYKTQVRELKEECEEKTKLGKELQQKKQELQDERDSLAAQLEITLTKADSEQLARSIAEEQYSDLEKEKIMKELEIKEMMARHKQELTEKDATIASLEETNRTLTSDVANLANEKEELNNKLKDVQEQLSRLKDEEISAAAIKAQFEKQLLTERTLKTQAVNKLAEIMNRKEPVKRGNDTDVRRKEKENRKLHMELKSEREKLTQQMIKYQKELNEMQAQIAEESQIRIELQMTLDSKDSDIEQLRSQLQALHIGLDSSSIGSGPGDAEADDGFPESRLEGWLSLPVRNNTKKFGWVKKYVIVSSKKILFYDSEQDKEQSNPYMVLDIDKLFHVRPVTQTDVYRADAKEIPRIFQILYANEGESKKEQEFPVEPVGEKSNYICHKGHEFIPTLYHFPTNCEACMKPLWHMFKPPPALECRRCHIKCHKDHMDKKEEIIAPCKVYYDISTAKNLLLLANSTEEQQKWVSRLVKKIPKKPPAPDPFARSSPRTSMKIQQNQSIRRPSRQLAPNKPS
row,IC50 [µM],SMILES
1,> 59.6,"Cc1cc(C(=O)CN2C(=O)NC3(CCCCC3)C2=O)c(C)n1Cc1ccc2c(c1)OCO2 [3-[2-(2,5-dimethyl-1-piperonyl-pyrrol-3-yl)-2-keto-ethyl]-1,3-diazaspiro[4.5]decane-2,4-quinone]"
2,8.3,"COC(=O)c1sc2cnccc2c1N [3-amino-2-thieno[2,3-c]pyridinecarboxylic acid methyl ester]"
3,> 59.6,"NC(=O)c1sc2nc3c(c(-c4ccco4)c2c1N)CCC3 [3-amino-4-(2-furyl)-6,7-dihydro-5H-cyclopenta[b]thieno[3,2-e]pyridine-2-carboxamide]"
4,> 59.6,"c1cc2c(cc1Nc1nc(-c3ccc4c(c3)OCO4)cs1)OCCO2 [4-(1,3-benzodioxol-5-yl)-N-(2,3-dihydro-1,4-benzodioxin-6-yl)-1,3-thiazol-2-amine]"
5,7.09,c1nc(N2CCOCC2)c2nc[nH]c2n1 [4-(7H-purin-6-yl)morpholine]
6,> 59.6,"Cc1cccc(N2CCN(C(=O)c3cn(C)c(=O)c4c3c3ccccc3n4C)CC2)c1C [4-[4-(2,3-dimethylphenyl)piperazin-1-yl]carbonyl-2,9-dimethyl-pyrido[3,4-b]indol-1-one]"
7,> 59.6,CC(C)CCN1CC(C(=O)N2CCN(c3ccc(F)cc3)CC2)CC1=O (stereo not given) [4-[4-(4-fluorophenyl)piperazin-1-yl]carbonyl-1-(3-methylbutyl)pyrrolidin-2-one]
8,> 59.6,"c1ccc(OCCCc2nc(-c3ccncc3)no2)cc1 [4-[5-(3-phenoxypropyl)-1,2,4-oxadiazol-3-yl]pyridine]"
9,> 59.6,"Clc1ccccc1-c1nn2c(-c3ccncc3)nnc2s1 [6-(2-chlorophenyl)-3-(4-pyridinyl)[1,2,4]triazolo[3,4-b][1,3,4]thiadiazole]"
10,> 19.9,CCOC(=O)C1=C(CSc2nc(-c3ccncc3)ccc2C#N)OC(=N)C(C#N)C1c1cccnc1 (stereo not given) [6-amino-5-cyano-2-[[(3-cyano-6-pyridin-4-yl-2-pyridinyl)thio]methyl]-4-(3-pyridinyl)-4H-pyran-3-carboxylic acid ethyl ester]
11,> 19.9,Oc1ncnc2cc(Cl)ccc12 [7-Chloro-quinazolin-4-ol]
12,> 59.6,"Cc1cc(N2CCOCC2)c2c(N)c(C)cc(C)c2n1 [(2,6,8-trimethyl-4-morpholino-5-quinolyl)amine]"
13,> 59.6,"Cc1onc(-c2ccccc2)c1C(=O)N1CCN(C/C=C/c2ccccc2)CC1 [(5-methyl-3-phenyl-1,2-oxazol-4-yl)-[4-[(E)-3-phenylprop-2-enyl]piperazin-1-yl]methanone;hydrochloride]"
14,> 19.9,COC(=O)c1cccc2c1-c1ccccc1C2N=O (stereo not given) [(9Z)-9-hydroximinofluorene-4-carboxylic acid methyl ester]
15,> 59.6,"Cc1ccccc1NC(=O)Cn1c(C)nc2ccc(NC(=O)C3CC3)cc2c1=O [Cyclopropanecarboxylic acid [2-methyl-4-oxo-3-(o-tolylcarbamoyl-methyl)-3,4-dihydro-quinazolin-6-yl]-amide]"
16,5.72,CCc1cc2c(O)ncnc2s1 [MLS000029626]

row,IC50 [µM],SMILES
1,> 59.6,C(=Nc1nc2ccccc2n1CCN1CCCCC1)c1cccs1 [MLS000038975]
2,> 19.9,CCCCCC(=O)Nc1ccc2oc(-c3ccncc3)nc2c1 [MLS000039066]
3,> 19.9,O=C1NC(=O)c2cc(NC(=O)C3CCCCC3)ccc21 [MLS000062910]
4,> 59.6,Cc1cc(NC(=O)CSc2nc(-c3ccccc3)cs2)no1 [MLS000066259]
5,> 59.6,Cc1cc(=O)n(-c2ccccc2)[nH]1 [MLS000069602]
6,2.3,CC(C)C(NC(=O)C1CCCCC1)C(=O)Nc1ccncc1 (stereo not given) [MLS000090506]
7,> 19.9,Cc1cc(Cl)ccc1OCc1nnc(-c2ccc(O)cc2)[nH]1 [MLS000097369]
8,> 19.9,N#Cc1cccc(NC(=O)CSc2ccccc2)c1 [MLS000099417]
9,7.91,CN(CCO)c1ncnc2nc[nH]c12 [MLS000101269]
10,> 19.9,CCCCC(=O)Nc1ccc2c(c1)C(=O)NC2=O [MLS000103070]
11,1.73,O=C(Nc1ccncc1)C1CCCN(S(=O)(=O)c2cccc3cccnc23)C1 (stereo not given) [MLS000118826]
12,> 59.6,Cn1c(C(=O)N2CCCC(C(=O)N3CCN(C(=O)c4ccco4)CC3)C2)cc2sccc21 (stereo not given) [MLS000119519]
13,> 19.9,"CCN(CC)CCNC(=O)CCCCn1c(=S)[nH]c2c([nH]c3ccc(OC)cc32)c1=O [N-[2-(diethylamino)ethyl]-5-(8-methoxy-4-oxo-2-thioxo-1,2,4,5-tetrahydro-3H-pyrimido[5,4-b]indol-3-yl)pentanamide]"
14,6.18,c1cn(CCCNc2ncnc3nc[nH]c23)cn1 [N-[3-(1-imidazolyl)propyl]-7H-purin-6-amine]
15,> 19.9,C1=C(c2ccccc2)CCN(c2[nH]cnc3ncnc2-3)C1 [SMR000017661]

row,SMILES,IC50 [µM]
1,"Cc1c2ccncc2c(C)c2c1[nH]c1ccccc12 [5,11-dimethyl-2H-pyrido[4,3-b]carbazole]",6.68
2,"c1ccc2c(c1)[nH]c1cnccc12 [9H-pyrido[3,4-b]indole]",> 19.9
3,CC(C)[C@H]1C(=O)N2CCC[C@H]2[C@]2(O)O[C@](NC(=O)[C@@H]3C=C4c5cccc6[nH]cc(c56)C[C@H]4N(C)C3)(C(C)C)C(=O)N12 [ERGOCORNINE],> 59.6
4,Cc1[nH]c2ccccc2c1C1=CCNCC1 [MLS000045807],9.63
5,O=NCc1c[nH]c2ccccc12 [MLS000104363],4.81

# Same assay, conditions: inactive by the depositor's call
row,IC50 [µM],SMILES
1,20.6,Cc1ccc(S(=O)(=O)NCCCOC(=O)Nc2ccncc2)cc1 [3-[(4-methylphenyl)sulfonylamino]propyl N-pyridin-4-ylcarbamate]
2,42.6,"Cc1ccc(SCc2nc(-c3ccncc3)no2)cc1 [4-(5-{[(4-methylphenyl)thio]methyl}-1,2,4-oxadiazol-3-yl)pyridine]"
3,14.2,O=C(CCCOc1ccccc1)Nc1ccncc1 [4-Phenoxy-N-pyridin-4-yl-butyramide]
4,18.8,"Cc1ccc2c(c1)c1c3n2CCN(C(=O)Cn2c(-c4ccccc4)noc2=O)C3CCC1 (stereo not given) [4-[2-(8-Methyl-1,2,3a,4,5,6-hexahydro-pyrazino[3,2,1-jk]carbazol-3-yl)-2-oxo-ethyl]-3-phenyl-4H-[1,2,4]oxadiazol-5-one]"
5,41.2,"COCCN(CCOC)S(=O)(=O)c1ccc(C(=O)Nc2nc(-c3ccncc3)cs2)cc1 [4-[bis(2-methoxyethyl)sulfamoyl]-N-(4-pyridin-4-yl-1,3-thiazol-2-yl)benzamide]"
6,11,CCC(=O)Nc1ccc(C(=O)Cn2nc(C(=O)O)c3ccccc3c2=O)cc1 [4-keto-3-[2-keto-2-(4-propionamidophenyl)ethyl]phthalazine-1-carboxylic acid]
7,12.3,CC(=O)c1cc(C#N)c(SCc2ccncc2)nc1C [5-acetyl-6-methyl-2-(4-pyridylmethylthio)nicotinonitrile]
8,55.7,O=C(Oc1cccc2c(=O)[nH]ccc12)c1ccccc1 [(1-oxo-2H-isoquinolin-5-yl) benzoate]
9,11.6,"O=C(NCc1ccc2c(c1)OCO2)c1ccc2snnc2c1 [Benzo[1,2,3]thiadiazole-5-carboxylic acid (benzo[1,3]dioxol-5-ylmethyl)-amide]"
10,16.3,O=C(c1ccccc1)c1ccc2[nH]cnc2c1 [MLS000034982]
11,18.8,Cc1cc2c(ccc3[nH]onc32)n1 [MLS000038925]
12,445,CCOC1(OCC)N=C(N)C2(C#N)C(c3ccc(NC(C)=O)cc3)C12C#N (stereo not given) [MLS000085499]
13,16.5,COc1ccc(N2CCN(c3ncnc4[nH]cnc34)CC2)cc1 [MLS000101243]
14,31.8,CN(C)c1ccc(-c2ccncc2)cc1 [MLS000105960]
15,25.6,"O=C(Nc1ccc(N2CCOCC2)cc1)Nc1ccc2nc(-c3ccco3)c(-c3ccco3)nc2c1 [N-(2,3-di-2-furyl-6-quinoxalinyl)-N'-[4-(4-morpholinyl)phenyl]urea]"
16,13,Cc1cccc(Nc2ncnc3[nH]cnc23)c1 [N-(3-methylphenyl)-7H-purin-6-amine]
17,15.3,c1nc(NC2CCCCC2)c2[nH]cnc2n1 [N-cyclohexyl-7H-purin-6-amine]
18,16.1,N#Cc1cccc(NC(=O)NCCc2c[nH]c3ccccc23)c1 [SMR000096894]
19,30.1,Nc1cccc2cnccc12 [isoquinolin-5-amine]

# — BindingDB's records for doi:10.7270/Q2F769ZM (The Scripps Research Institute Molecular Screening Center, 2007)
